In patent US10064858B2, “Methods and compositions for treating bacterial infections with iron chelators” (THE UNITED STATES OF AMERICA, AS REPRESENTED BY THE …, priority 2011, dated 2018):
Where two headings read alike, the source gives them in different places.

How the values were obtained:
[1] = test system: multi-drug resistant bacterial species; experiment: Checkerboard, synergy with rifampin (summary); assay type: cell-based
From the text: Drug interactions were initially evaluated with the “checkerboard” microdilution design, which provided a matrix of all drug combinations assayed in terms of fractions of the previously determined MIC. The checkerboard microdilution design is described in R. J. Tallarida, “Drug Synergism: Its Detection and Applications,” Journal of Pharmacology and Experimental Therapeutics, 865-872 (2001); and in R. L. White, et al., (1996), supra. FIGS. 39A and 39B show the wellplates having different concentrations of iron chelator and antibiotic, as labeled along the x-axis and y-axis.
The checkerboard assay was used to asses other combinations of iron chelators and antibiotics. The fractional inhibitory concentration index (FIC), which was calculated as follows: FIC=(MIC A in combination/MIC A)+(MIC B in combination/MIC B). Interaction was defined as synergistic if the FIC was <1.0, preferably <0.5, no interaction if the FIC was >1.0 and <4.0, and antagonistic if the FIC was >4.0.
The assay was run against the multi-drug resistant bacterial species AB 19606, AB 17978, KP ndm, PA PAO1, PA 27853, EC 35718, and EC 43888. Blank spaces indicate concentrations not tested. […] Against the species PA PAO1 and PA 27853, all the antibiotics except for Ami.

E. coli EC35218 = experiment: Time-kill assay in CAMHB; assay type: cell-based
Procedure: (§1) Reductions in colony forming units (CFU)/mL were determined over time (time-kill assay) after exposure to VK28 and deferiprone (DFP), the two iron chelators that performed best in MIC assays when compared to controls. To better represent the iron content found in the human body, MIC and time-kill assays were also determined in minimal media and tissue culture media. Time-Kill assays were performed as previously described in G. P. Neupane et al., “In vitro time-kill activities of ciprofloxacin alone and in combination with the iron chelator deferasirox against Vibrio vulnificus,” European Journal of Clinical Microbiology and Infectious Diseases, 407-410 (2010); and R. L. White, et al., “Comparison of Three Different In Vitro Methods of Detecting synergy: Time-Kill, Checkerboard, and E test,” Journal of Antimicrobial Agents and Chemotherapy, 1914-1918 (1996). Initial inocula, for example 1×10^6 CFU/mL or 1×10^7 CFU/mL were challenged with iron chelator with and/or without an antibiotic. Cells were allowed to grow in CAMHB at 37° C. for 24 hours. Time-kill results were analyzed by determining the change in log 10 numbers of CFU/ml at 0, 6, and 24 h, compared to counts at 0 h. Antimicrobials were considered bactericidal at the lowest concentration that reduced the size of the original inoculum by >3 log 10 CFU/ml (99.9%) over each of the time periods and were considered bacteriostatic if the inoculum's size was reduced by 0 to <3 log 10 CFU/ml.
In this example, time-kill assays were performed as described in Example 9 against different multi-drug resistant bacteria, namely E. coli and MRSA.
In this example, time-kill assays were performed as described in Example 9 using ApoL1 as the iron chelator against two different E. coli strains. […] Time-kill results were analyzed by determining the change in log 10 numbers of CFU/mL at 6 and 24 hours.
In this example, time-kill assays were performed as described in Example 9 using Apo6619 as the iron chelator in combination with Rifampin against E. coli 35718. […] Time-kill results were analyzed by determining the change in log 10 numbers of CFU/mL at 0, 5 and 24 hours.

[2] = test system: multi-drug resistant bacterial species; experiment: Time kill method, synergy with rifampin (summary); assay type: cell-based
Procedure: as §1

AB5075 = experiment: Time-kill assay in M9 minimal media; assay type: cell-based, A. baumannii; conditions: 24 hours
Procedure: as §1
The untreated sample (♦) had greater than 1×10^9 CFU/mL after 9 hours that was sustained at 24 hours.

[3] = test system: A. baumannii AB 19606, AB 17978; experiment: Checkerboard assay, chelator with antibiotic (FIC); assay type: cell-based; conditions: for checkerboard interaction: AB19606
From the text: Drug interactions were initially evaluated with the “checkerboard” microdilution design, which provided a matrix of all drug combinations assayed in terms of fractions of the previously determined MIC. The checkerboard microdilution design is described in R. J. Tallarida, “Drug Synergism: Its Detection and Applications,” Journal of Pharmacology and Experimental Therapeutics, 865-872 (2001); and in R. L. White, et al., (1996), supra. FIGS. 39A and 39B show the wellplates having different concentrations of iron chelator and antibiotic, as labeled along the x-axis and y-axis. […] The checkerboard assay was used to asses other combinations of iron chelators and antibiotics. The fractional inhibitory concentration index (FIC), which was calculated as follows: FIC=(MIC A in combination/MIC A)+(MIC B in combination/MIC B). […] Blank spaces indicate concentrations not tested. […] Against the species PA PAO1 and PA 27853, all the antibiotics except for Ami.

[4] = test system: clinical isolates of A. baumannii; experiment: MIC for clinical isolates in RPMI (low iron) media (Table 4); assay type: cell-based; design: key to MIC of Iron Chelators: NG = no growth in table 4; conditions: for MIC: Acinetobacter baumannii
Procedure: […] […] Tests were performed in triplicate. MIC of iron chelators were determined for noscomial ESKAPE pathogens.
For a number of strains, the iron chelators produced no growth of bacteria (NG).

[5] = 1.5 MIC ApoL1 in combination with ¾MIC rifampin, CAMHB
[6] = AB 17978, in combination with Amikacin
[7] = AB 17978, in combination with Cefotaxine
[8] = AB 17978, in combination with Colisitin (Colistin)
[9] = AB 17978, in combination with Doxycycline
[10] = AB 17978, in combination with Rifampin
[11] = AB 19606, in combination with Amikacin
[12] = AB 19606, in combination with Cefotaxine
[13] = AB 19606, in combination with Colisitin (Colistin)
[14] = AB 19606, in combination with Doxycycline
[15] = AB 19606, in combination with Rifampin
[16] = AB3638, read-out: MIC of Iron Chelators
[17] = AB3806, read-out: MIC of Iron Chelators
[18] = AB4025, read-out: MIC of Iron Chelators
[19] = AB4026, read-out: MIC of Iron Chelators
[20] = AB4027, read-out: MIC of Iron Chelators
[21] = AB4052, read-out: MIC of Iron Chelators
[22] = AB4269, read-out: MIC of Iron Chelators
[23] = AB4448, read-out: MIC of Iron Chelators
[24] = AB4456, read-out: MIC of Iron Chelators
[25] = AB4490, read-out: MIC of Iron Chelators
[26] = AB4498, read-out: MIC of Iron Chelators
[27] = AB4795, read-out: MIC of Iron Chelators
[28] = AB4857, read-out: MIC of Iron Chelators
[29] = AB4878, read-out: MIC of Iron Chelators
[30] = AB4932, read-out: MIC of Iron Chelators
[31] = AB4957, read-out: MIC of Iron Chelators
[32] = AB4991, read-out: MIC of Iron Chelators
[33] = AB5001, read-out: MIC of Iron Chelators
[34] = AB5075, read-out: MIC of Iron Chelators
[35] = AB5197, read-out: MIC of Iron Chelators
[36] = AB5256, read-out: MIC of Iron Chelators
[37] = AB5674, read-out: MIC of Iron Chelators
[38] = AB5711, read-out: MIC of Iron Chelators

## Cc1c(O)c(=O)ccn1C [ApoL1, 3-hydroxy-1,2-dimethyl-4(1H)-pyridone]
[1]
  synergy with rifampin, checkerboard: moderate degrees of synergy
E. coli EC35218; [5]
  reduction in CFU/mL: greater than 3 log 10
  time-kill effect: bactericidal (considered bactericidal at the lowest concentration that reduced the size of the original inoculum by >3 log 10 CFU/ml (99.9%))
E. coli EC35218; 1.5 MIC Iron Chelator alone, CAMHB
  time-kill effect: bacteriostatic (considered bacteriostatic if the inoculum's size was reduced by 0 to <3 log 10 CFU/ml)
[2]
  synergy with rifampin, time kill method: strong synergy
AB5075; 0.5×MIC
  time-kill course of CFU/ml: slight reduction in CFU/ml levels over the 24 hour period
AB5075; 1×MIC
  time-kill course of CFU/ml: slight reduction in CFU/ml levels over the 24 hour period
AB5075; 2×MIC
  time-kill course of CFU/ml: sustained level of CFU/ml obtained over the 24 hour period
[3]; [6]
  FIC: 1.25
[3]; [7]
  FIC: 1.25
[3]; [8]
  FIC: 1.25
[3]; [9]
  FIC: 1.25
[3]; [10]
  FIC: 0.75
[3]; [11]
  FIC: 1.25
[3]; [12]
  FIC: 1.25
[3]; [13]
  FIC: 1.25
[3]; [14]
  FIC: 2.25
[3]; [15]
  FIC: 0.75
[3]; with doxycycline (FIG. 39B)
  checkerboard interaction: indifference
[3]; with rifampin (FIG. 39A)
  checkerboard interaction: moderate synergy
[4]; AB967
  MIC of Iron Chelators: NG
[4]; AB2828
  MIC of Iron Chelators: NG
[4]; AB3340
  MIC of Iron Chelators: NG
[4]; AB3560
  MIC of Iron Chelators: NG
[4]; AB3785
  MIC of Iron Chelators: NG
[4]; AB3917
  MIC of Iron Chelators: NG
[4]; AB3927
  MIC of Iron Chelators: NG
[4]; [16]
  MIC: 125 µg/mL
[4]; [17]
  MIC: 125 µg/mL
[4]; [18]
  MIC: 125 µg/mL
[4]; [19]
  MIC: 125 µg/mL
[4]; [20]
  MIC: 125 µg/mL
[4]; [21]
  MIC: 125 µg/mL
[4]; [22]
  MIC: 125 µg/mL
[4]; [23]
  MIC: 125 µg/mL
[4]; [24]
  MIC: 125 µg/mL
[4]; [25]
  MIC: 125 µg/mL
[4]; [26]
  MIC: 125 µg/mL
[4]; [27]
  MIC: 125 µg/mL
[4]; [28]
  MIC: 125 µg/mL
[4]; [29]
  MIC: 250 µg/mL
[4]; [30]
  MIC: 64 µg/mL
[4]; [31]
  MIC: 125 µg/mL
[4]; [32]
  MIC: 125 µg/mL
[4]; [33]
  MIC: 125 µg/mL
[4]; [34]
  MIC: 125 µg/mL
[4]; [35]
  MIC: 125 µg/mL
[4]; [36]
  MIC: 125 µg/mL
[4]; [37]
  MIC: 125 µg/mL
[4]; [38]
  MIC: 64 µg/mL

## CNC(=O)c1c(O)c(=O)cc(C)n1C1CC1 [Apo6619, 1-cyclopropyl-3-hydroxy-6-methyl-4-oxo-1,4-dihydro-pyridine-2-carboxylic acid methylamide]
[1]
  synergy with rifampin, checkerboard: moderate degrees of synergy
E. coli EC35218; E. coli 35718, 1.5×MIC Apo6619 in combination with 0.75×MIC Rifampin, 0, 5 and 24 hours
  time kill curves: combinational effect
[2]
  synergy with rifampin, time kill method: strong synergy
[3]; [6]
  FIC: 0.75
[3]; [7]
  FIC: 0.75
[3]; [8]
  FIC: 0.75
[3]; [9]
  FIC: 1.25
[3]; [10]
  FIC: 0.75
[3]; [11]
  FIC: 1.25
[3]; [12]
  FIC: 1.25
[3]; [13]
  FIC: 1.25
[3]; [14]
  FIC: 2.25
[3]; [15]
  FIC: 0.75
[4]; AB967
  MIC of Iron Chelators: NG
[4]; AB2828
  MIC of Iron Chelators: NG
[4]; AB3340
  MIC of Iron Chelators: NG
[4]; AB3560
  MIC of Iron Chelators: NG
[4]; AB3927
  MIC of Iron Chelators: NG
[4]; [16]
  MIC: 250 µg/mL
[4]; AB3785, read-out: MIC of Iron Chelators
  MIC: 125 µg/mL
[4]; [17]
  MIC: 250 µg/mL
[4]; AB3917, read-out: MIC of Iron Chelators
  MIC: 250 µg/mL
[4]; [18]
  MIC: 250 µg/mL
[4]; [19]
  MIC: 250 µg/mL
[4]; [20]
  MIC: 250 µg/mL
[4]; [21]
  MIC: 250 µg/mL
[4]; [22]
  MIC: 125 µg/mL
[4]; [23]
  MIC: 250 µg/mL
[4]; [24]
  MIC: 250 µg/mL
[4]; [25]
  MIC: 250 µg/mL
[4]; [26]
  MIC: 250 µg/mL
[4]; [27]
  MIC: 250 µg/mL
[4]; [28]
  MIC: 250 µg/mL
[4]; [29]
  MIC: 250 µg/mL
[4]; [30]
  MIC: 250 µg/mL
[4]; [31]
  MIC: 250 µg/mL
[4]; [32]
  MIC: 125 µg/mL
[4]; [33]
  MIC: 250 µg/mL
[4]; [34]
  MIC: 250 µg/mL
[4]; [35]
  MIC: 250 µg/mL
[4]; [36]
  MIC: 250 µg/mL
[4]; [37]
  MIC: 250 µg/mL
[4]; [38]
  MIC: 250 µg/mL
